{"source": "ChEMBL document CHEMBL5046300", "about": "“Potent Bactericidal Antimycobacterials Targeting the Chaperone ClpC1 Based on the Depsipeptide Natural Products Ecumicin and Ohmyungsamycin A” (2022)", "key": {"[1]": {"system": "Mycobacterium tuberculosis", "assay": "Antimycobacterial activity against Mycobacterium tuberculosis mc2 6230 measured after 7 days", "type": "functional", "settings": "mc2 6230, 168 h, time 7 day"}, "Escherichia coli": {"system": "Escherichia coli", "assay": "Antibacterial activity against Escherichia coli K-12 MG1655 assessed as bacterial growth inhibition incubated for 18 to 20 hrs by broth microdilution method", "type": "functional", "settings": "time 18-20 hrs"}, "Klebsiella aerogenes": {"system": "Klebsiella aerogenes", "assay": "Antibacterial activity against Klebsiella aerogenes ATCC 35029 assessed as bacterial growth inhibition incubated for 18 to 20 hrs by broth microdilution method", "type": "functional", "settings": "time 18-20 hrs"}, "Klebsiella pneumoniae": {"system": "Klebsiella pneumoniae", "assay": "Antibacterial activity against Klebsiella pneumoniae ATCC 700603 assessed as bacterial growth inhibition incubated for 18 to 20 hrs by broth microdilution method", "type": "functional", "settings": "time 18-20 hrs"}, "[2]": {"system": "Providencia alcalifaciens", "assay": "Antibacterial activity against Providencia alcalifaciens ATCC 9886 assessed as bacterial growth inhibition incubated for 18 to 20 hrs by broth microdilution method", "type": "functional", "settings": "time 18-20 hrs"}, "Salmonella enterica": {"system": "Salmonella enterica", "assay": "Antibacterial activity against Salmonella enterica ATCC 13311 assessed as bacterial growth inhibition incubated for 18 to 20 hrs by broth microdilution method", "type": "functional", "settings": "time 18-20 hrs"}, "Shigella sonnei": {"system": "Shigella sonnei", "assay": "Antibacterial activity against Shigella sonnei ATCC 25931 assessed as bacterial growth inhibition incubated for 18 to 20 hrs by broth microdilution method", "type": "functional", "settings": "time 18-20 hrs"}, "[3]": {"system": "Yersinia pseudotuberculosis", "assay": "Antibacterial activity against Yersinia pseudotuberculosis ATCC 6904 assessed as bacterial growth inhibition incubated for 18 to 20 hrs by broth microdilution method", "type": "functional", "settings": "time 18-20 hrs"}, "Acinetobacter baumannii": {"system": "Acinetobacter baumannii", "assay": "Antibacterial activity against Acinetobacter baumannii ATCC 19606 assessed as bacterial growth inhibition incubated for 18 to 20 hrs by broth microdilution method", "type": "functional", "settings": "time 18-20 hrs"}, "Pseudomonas aeruginosa": {"system": "Pseudomonas aeruginosa", "assay": "Antibacterial activity against Pseudomonas aeruginosa ATCC 27853 assessed as bacterial growth inhibition incubated for 18 to 20 hrs by broth microdilution method", "type": "functional", "settings": "time 18-20 hrs"}, "Vibrio cholerae": {"system": "Vibrio cholerae", "assay": "Antibacterial activity against Vibrio cholerae A1552 El Tor assessed as bacterial growth inhibition incubated for 18 to 20 hrs by broth microdilution method", "type": "functional", "settings": "time 18-20 hrs"}, "Brucella anthropi": {"system": "Brucella anthropi", "assay": "Antibacterial activity against Ochrobactrum anthropi ATCC 49687 assessed as bacterial growth inhibition incubated for 18 to 20 hrs by broth microdilution method", "type": "functional", "settings": "time 18-20 hrs"}, "Bacillus subtilis": {"system": "Bacillus subtilis", "assay": "Antibacterial activity against Bacillus subtilis ATCC 6051 assessed as bacterial growth inhibition incubated for 18 to 20 hrs by broth microdilution method", "type": "functional", "settings": "time 18-20 hrs"}, "Listeria ivanovii": {"system": "Listeria ivanovii", "assay": "Antibacterial activity against Listeria ivanovii BAA-139 assessed as bacterial growth inhibition incubated for 18 to 20 hrs by broth microdilution method", "type": "functional", "settings": "time 18-20 hrs"}, "Staphylococcus aureus [4]": {"system": "Staphylococcus aureus", "assay": "Antibacterial activity against methicillin-sensitive Staphylococcus aureus ATCC 29213 assessed as bacterial growth inhibition incubated for 18 to 20 hrs by broth microdilution method", "type": "functional", "settings": "time 18-20 hrs"}, "Staphylococcus aureus [5]": {"system": "Staphylococcus aureus", "assay": "Antibacterial activity against methicillin-resistant Staphylococcus aureus BAA-44 assessed as bacterial growth inhibition incubated for 18 to 20 hrs by broth microdilution method", "type": "functional", "settings": "time 18-20 hrs"}, "[6]": {"system": "Staphylococcus epidermidis", "assay": "Antibacterial activity against Staphylococcus epidermidis ATCC 14990 assessed as bacterial growth inhibition incubated for 18 to 20 hrs by broth microdilution method", "type": "functional", "settings": "time 18-20 hrs"}, "Enterococcus faecium": {"system": "Enterococcus faecium", "assay": "Antibacterial activity against Enterococcus faecium ATCC 6569 assessed as bacterial growth inhibition incubated for 18 to 20 hrs by broth microdilution method", "type": "functional", "settings": "time 18-20 hrs"}, "Enterococcus faecalis": {"system": "Enterococcus faecalis", "assay": "Antibacterial activity against Enterococcus faecalis ATCC 29212 assessed as bacterial growth inhibition incubated for 18 to 20 hrs by broth microdilution method", "type": "functional", "settings": "time 18-20 hrs"}, "Streptococcus pneumoniae": {"system": "Streptococcus pneumoniae", "assay": "Antibacterial activity against Streptococcus pneumoniae ATCC 49619 assessed as bacterial growth inhibition incubated for 18 to 20 hrs by broth microdilution method", "type": "functional", "settings": "time 18-20 hrs"}, "[7]": {"system": "Mycobacterium tuberculosis", "assay": "Antibacterial activity against Mycobacterium tuberculosis mc2 6230 assessed as reduction in viable cells at 10 times MIC measured for 42 days in solid media by time kill assay", "type": "functional", "settings": "time 42.0 day"}, "[8]": {"system": "Mycobacterium tuberculosis", "assay": "Antimycobacterial activity against Mycobacterium tuberculosis mc2 6230 assessed as log reduction in bacteria measured up to 21 days by Time kill assay", "type": "functional, organism-based", "settings": "time day <=21"}}, "note": "Active and inactive are the calls of the source. The rule behind the calls is not given here. *1 amine or outer side, *2 acyl side, *3 side chain or, on linkers, in order; H or OH if unused. Where a SMILES comes first, the peptide text is derived from it. Bridges are numbered along the chain shown (N, C = ends). [ ]: non-standard residue; d: D form. The star is where a group is joined. Phe(3R-OH) = O=C([C@@H](N[*:1])[C@H](O[*:3])c1ccccc1)[*:2]; NMeTrp(4-OMe) = CN[C@@H](Cc1c[nH]c2cccc(OC)c12)C(=O)O; NMeW = CN[C@@H](Cc1c[nH]c2ccccc12)C(=O)O; NMe2Val = CC(C)[C@@H](C(=O)*)N(C)C; Hyp = O=C(O)[C@@H]1C[C@@H](O)CN1; NMeChg = CN[C@H](C(=O)O)C1CCCCC1; NMeT = CN[C@H](C(=O)O)[C@@H](C)O; NMeL = CN[C@@H](CC(C)C)C(=O)O; NMeNva = CCC[C@H](NC)C(=O)O; NMeV = CN[C@H](C(=O)O)C(C)C"}
{"smiles": "CCC[C@H]1C(=O)N(C)[C@@H](Cc2c[nH]c3ccccc23)C(=O)N[C@@H](C(C)C)C(=O)N[C@@H](Cc2ccccc2)C(=O)N[C@@H](C(C)C)C(=O)O[C@H](C)[C@H](NC(=O)[C@@H](NC(=O)[C@@H](NC)C(C)C)C(C)C)C(=O)N(C)[C@@H]([C@@H](C)O)C(=O)N[C@@H](C(C)C)C(=O)N(C)[C@@H](CC(C)C)C(=O)N[C@@H](C(C)C)C(=O)N1C", "note": "(H-[NMeV]VT[NMeT]V[NMeL]V[NMeNva][NMeW]VFV; ester 3-C)", "values": [{"measurement": "MIC", "setting": "[1]", "result": 0.5, "unit": "µM"}]}
{"smiles": "COc1cccc2[nH]cc(C[C@H]3C(=O)N[C@@H](C(C)C)C(=O)N[C@@H]([C@H](O)c4ccccc4)C(=O)N[C@@H](C(C)C)C(=O)O[C@H](C)[C@H](NC(=O)[C@@H](NC(=O)[C@H](C(C)C)N(C)C)C(C)C)C(=O)N(C)[C@@H]([C@@H](C)O)C(=O)N[C@@H](C(C)C)C(=O)N(C)[C@@H](CC(C)C)C(=O)N[C@@H](C(C)C)C(=O)N(C)[C@@H](C(C)C)C(=O)N3C)c12", "note": "(NMe2Val-VT[NMeT]V[NMeL]V[NMeV][NMeTrp(4-OMe)]V[Phe(3R-OH)]V; ester 2-C)", "values": [{"measurement": "MIC", "setting": "[1]", "result": 0.5, "unit": "µM"}]}
{"smiles": "CN[C@H](C(=O)N[C@H](C(=O)N[C@@H]1C(=O)N(C)[C@@H]([C@@H](C)O)C(=O)N[C@@H](C(C)C)C(=O)N(C)[C@@H](CC(C)C)C(=O)N[C@@H](C(C)C)C(=O)N(C)[C@@H](C2CCCCC2)C(=O)N(C)[C@@H](Cc2c[nH]c3ccccc23)C(=O)N[C@@H](C(C)C)C(=O)N[C@@H](Cc2ccccc2)C(=O)N[C@@H](C(C)C)C(=O)O[C@@H]1C)C(C)C)C(C)C", "note": "(H-[NMeV]VT[NMeT]V[NMeL]V[NMeChg][NMeW]VFV; ester 3-C)", "values": [{"measurement": "MIC", "setting": "[1]", "result": 0.5, "unit": "µM"}]}
{"smiles": "CN[C@H](C(=O)N[C@H](C(=O)N[C@@H]1C(=O)N(C)[C@@H]([C@@H](C)O)C(=O)N[C@@H](C(C)C)C(=O)N(C)[C@@H](CC(C)C)C(=O)N[C@@H](C(C)C)C(=O)N2CCC[C@H]2C(=O)N(C)[C@@H](Cc2c[nH]c3ccccc23)C(=O)N[C@@H](C(C)C)C(=O)N[C@@H](Cc2ccccc2)C(=O)N[C@@H](C(C)C)C(=O)O[C@@H]1C)C(C)C)C(C)C", "note": "(H-[NMeV]VT[NMeT]V[NMeL]VP[NMeW]VFV; ester 3-C)", "values": [{"measurement": "MIC", "setting": "[1]", "result": 8, "unit": "µM"}]}
{"smiles": "CN[C@@H]1[C@H](O[C@H]2[C@H](O[C@H]3[C@H](O)[C@@H](O)[C@H](N=C(N)N)[C@@H](O)[C@@H]3N=C(N)N)O[C@@H](C)[C@]2(O)C=O)O[C@@H](CO)[C@H](O)[C@H]1O", "note": "[STREPTOMYCIN]", "values": [{"measurement": "MIC", "setting": "Escherichia coli", "result": 0.25, "unit": "µM"}, {"measurement": "MIC", "setting": "Klebsiella aerogenes", "result": 0.25, "unit": "µM"}, {"measurement": "MIC", "setting": "Klebsiella pneumoniae", "result": 0.17, "unit": "µM"}, {"measurement": "MIC", "setting": "[2]", "result": 9.3, "unit": "µM"}, {"measurement": "MIC", "setting": "Salmonella enterica", "result": 0.33, "unit": "µM"}, {"measurement": "MIC", "setting": "Shigella sonnei", "result": 0.25, "unit": "µM"}, {"measurement": "MIC", "setting": "[3]", "result": 6.7, "unit": "µM"}, {"measurement": "MIC", "setting": "Acinetobacter baumannii", "result": 128, "unit": "µM"}, {"measurement": "MIC", "setting": "Pseudomonas aeruginosa", "result": 16, "unit": "µM"}, {"measurement": "MIC", "setting": "Vibrio cholerae", "result": 13, "unit": "µM"}, {"measurement": "MIC", "setting": "Brucella anthropi", "result": 128, "unit": "µM"}, {"measurement": "MIC", "setting": "Bacillus subtilis", "result": 128, "unit": "µM"}, {"measurement": "MIC", "setting": "Listeria ivanovii", "result": 4, "unit": "µM"}, {"measurement": "MIC", "setting": "Staphylococcus aureus [4]", "result": 2.7, "unit": "µM"}, {"measurement": "MIC", "setting": "Staphylococcus aureus [5]", "result": 9.3, "unit": "µM"}, {"measurement": "MIC", "setting": "[6]", "result": 2.7, "unit": "µM"}, {"measurement": "MIC", "setting": "Enterococcus faecium", "result": 16, "unit": "µM"}, {"measurement": "MIC", "setting": "Enterococcus faecalis", "result": 128, "unit": "µM"}, {"measurement": "MIC", "setting": "Streptococcus pneumoniae", "result": 48, "unit": "µM"}]}
{"smiles": "NNC(=O)c1ccncc1", "values": [{"measurement": "Activity", "setting": "[7]", "result": "inactive"}]}
{"smiles": "CN[C@H](C(=O)N[C@H](C(=O)N[C@@H]1C(=O)N(C)[C@@H]([C@@H](C)O)C(=O)N[C@@H](C(C)C)C(=O)N(C)[C@@H](CC(C)C)C(=O)N[C@@H](C(C)C)C(=O)N2C[C@H](O)C[C@H]2C(=O)N(C)[C@@H](Cc2c[nH]c3ccccc23)C(=O)N[C@@H](C(C)C)C(=O)N[C@@H](Cc2ccccc2)C(=O)N[C@@H](C(C)C)C(=O)O[C@@H]1C)C(C)C)C(C)C", "note": "(H-[NMeV]VT[NMeT]V[NMeL]V[Hyp][NMeW]VFV; ester 3-C)", "values": [{"measurement": "MIC", "setting": "[1]", "result": 8, "unit": "µM"}]}
{"smiles": "CN[C@H](C(=O)N[C@H](C(=O)N[C@@H]1C(=O)N(C)[C@@H]([C@@H](C)O)C(=O)N[C@@H](C(C)C)C(=O)N(C)[C@@H](CC(C)C)C(=O)N[C@@H](C(C)C)C(=O)N(C)[C@@H](C(C)C)C(=O)N(C)[C@@H](Cc2c[nH]c3ccccc23)C(=O)N[C@@H](C(C)C)C(=O)N[C@@H](Cc2ccccc2)C(=O)N[C@@H](C(C)C)C(=O)O[C@@H]1C)C(C)C)C(C)C", "note": "(H-[NMeV]VT[NMeT]V[NMeL]V[NMeV][NMeW]VFV; ester 3-C)", "values": [{"measurement": "MIC", "setting": "[1]", "result": 0.25, "unit": "µM"}, {"measurement": "Activity", "setting": "[8]", "result": "Active"}]}
